Test results: the supplement of paper PMC11451515

Tests used:
Assay in all cases: AUC of viability dose-response curve (% viability x log10 dose units); higher = less sensitive
Conditions in all cases: 48 h
[1] = system: P12-Ichikawa
Summary of the method: (§1)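 Leukemia cells adapted to each medium were seeded at 500 or 1000 cells/well in 1536-well plates and dosed with library compounds in DMSO at 11 threefold doses from 47 μM to 0.79 nM for 48 h at 37°C. CellTiter-Glo One luminescence was normalised per plate to DMSO and cell-free wells, then fitted with a four-parameter log-logistic model over log10 doses. Area under the curve was taken from this fit by the trapezoidal rule, with curves above full viability scaled and curves failing quality control removed.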

[2] = system: SEM cells
Summary of the method: as §1

[3] = system: NOMO1
Summary of the method: as §1

[4] = RPMI 5 mM glucose + 10% dialyzed FBS

Compound	AUC of viability dose-response curve ([1]; HPLM + 10% dialyzed FBS)	AUC of viability dose-response curve ([1]; RPMI 5 mM glucose + 10% FBS)	AUC of viability dose-response curve [1, 4]	AUC of viability dose-response curve ([2]; HPLM + 10% dialyzed FBS)	AUC of viability dose-response curve ([2]; RPMI 5 mM glucose + 10% FBS)	AUC of viability dose-response curve [2, 4]	AUC of viability dose-response curve ([3]; HPLM + 10% dialyzed FBS)	AUC of viability dose-response curve ([3]; RPMI 5 mM glucose + 10% FBS)	AUC of viability dose-response curve [3, 4]
C[C@@H]1C[C@H]2[C@@H]3CC\C4=C\C(=O)\C=C/[C@]4(C)[C@@]3(Cl)[C@@H](O)C[C@]2(C)[C@@]1(OC(=O)C5=CC=CO5)C(=O)CCl	313	265	234	245	236	222	442	454	451
NC\1=N\C(=O)N(\C=C1)[C@H]\2[C@H](O)[C@H](O)C(=C2F)\CO	361	394	389	376	421	353	369	378	369
N#CC(=C(/N)Sc1ccccc1N)/C(C#N)=C(\N)Sc1ccccc1N	474	469	472	452	444	410	436	473	444
CC(C)(C)NC(=O)[C@H]1CC[C@H]2[C@@H]3CC[C@H]4NC(=O)\C=C/[C@]4(C)[C@H]3CC[C@]12C	421	421	450	449	457	459	382	365	383
OC1=CC=C(C=C1)\C2=C\C(=O)C3=C(O2)C=C(O)C=C3O	467	456	453	462	430	443	451	457	448
Oc1cc(O)cc(/C=C/c2ccc(O)c(O)c2)c1	449	452	444	413	430	390	442	416	431
COc1cccc2c1C(=O)c1c(O)c3c(c(O)c1C2=O)C[C@@](O)(C(C)=O)C[C@@H]3O[C@H]1C[C@H](N)[C@H](O)[C@H](C)O1	274	264	263	192	190	209	265	262	259
CC(C)(C)NC(=O)[C@@H]1CN(Cc2cccnc2)CCN1C[C@@H](O)C[C@@H](Cc1ccccc1)C(=O)N[C@H]1c2ccccc2C[C@H]1O.O=S(=O)(O)O	463	463	455	439	455	454	472	461	442
CN(C)CCN(Cc1ccc(Cl)cc1)c1ccccn1.Cl	462	410	391	404	456	452	419	430	418
COC1(C[S+]([O-])c2ccccc2)CCN(CCc2c[nH]c3ccc(F)cc23)CC1 (centres undefined)	455	408	451	445	471	456	418	469	460
C#Cc1cccc(Nc2ncnc3cc(OC)c(OCCCCCCC(=O)NO)cc23)c1	253	254	244	264	216	254	276	313	300
